Test system: THP-1 myeloid leukemia cells
Assay: MTT assay
Assay type: cell-based, human
Settings: 4 day exposure

With `C[C@H](/C=C/[C@H](C)C(C)(C)O)[C@H]1CC[C@H]2/C(=C/C=C3C[C@@H](O)C[C@H](O)C3)CCC[C@]12C` [paricalcitol, 19-nor-1,25, (OH)2D3] the “antiproliferative effect by MTT assay” value was “sensitive”.
